Assay results from article PMC9868654, “Discovery of a potent olaparib–chlorambucil hybrid inhibitor of PARP1 for the treatment of cancer” (Frontiers in Pharmacology, 2023).
Blank lines part the entries; values can stand above or below the molecule they belong to.

What was measured:
[1] = target: PARP1 (Homo sapiens, UniProt P09874); test: PARP1 enzyme inhibitory assay; format: biochemical; conditions: mean of three experiments
[2] = tested on: Hela cells; test: In vitro antiproliferative assay (CCK-8); format: cell-based; conditions: Homo sapiens, without BRCA mutations, CCK-8, 72 h, mean of three
Experimental: (§1) The proliferation of cancer cells was tested by CCK-8 assay. Briefly, cells were seeded in 96-well plates at approximately 5 × 10^3 cells per well. The cells were treated with test compounds after 24 h of incubation. CCK-8 reagent ([…]) was added to each well after 72 h of incubation, and the cells were then incubated at 37°C for 4 h. The light absorbance at 450 nm was measured using an Opsys microplate reader (Dynex Technologies, Chantilly, VA, United States). Results are illustrated as percentage viability normalized to DMSO-treated control cells.

[3] = tested on: Raji cells; test: In vitro antiproliferative assay (CCK-8); format: cell-based; conditions: Homo sapiens, without BRCA mutations, CCK-8, 72 h, mean of three
Experimental: as §1

[4] = tested on: HCC1937 cells; test: In vitro antiproliferative assay (CCK-8); format: cell-based; conditions: Homo sapiens; HCC1937, BRCA-mutated; CCK-8, 72 h; mean of three
Experimental: as §1

[5] = tested on: SW620 cells; test: In vitro antiproliferative assay (CCK-8); format: cell-based; conditions: Homo sapiens, SW-620; SW620, without BRCA mutations; CCK-8, 72 h; mean of three
Experimental: as §1

[6] = tested on: A549 cells; test: In vitro antiproliferative assay (CCK-8); format: cell-based; conditions: Homo sapiens; A549, without BRCA mutations; CCK-8, 72 h; mean of three
Experimental: as §1

[7] = tested on: MDA-MB-436 cells; test: In vitro antiproliferative assay (CCK-8); format: cell-based; conditions: Homo sapiens; MDA-MB-436, BRCA-mutated; CCK-8, 72 h; mean of three
Experimental: as §1

[8] = tested on: U87 cells; test: In vitro antiproliferative assay (CCK-8); format: cell-based; conditions: Homo sapiens, U-87 MG; U87, without BRCA mutations; CCK-8, 72 h; mean of three
Experimental: as §1

[9] = tested on: U251 cells; test: In vitro antiproliferative assay (CCK-8); format: cell-based; conditions: Homo sapiens, U-251; U251, without BRCA mutations; CCK-8, 72 h; mean of three
Experimental: as §1

[10] = tested on: K562 cells; test: In vitro antiproliferative assay (CCK-8); format: cell-based; conditions: Homo sapiens; K562, without BRCA mutations; CCK-8, 72 h; mean of three
Experimental: as §1

[11] = tested on: CH151 cells; test: In vitro antiproliferative assay (CCK-8); format: cell-based; conditions: CH151, without BRCA mutations; CCK-8, 72 h; mean of three
Experimental: as §1

[12] = tested on: 8226 cells; test: In vitro antiproliferative assay (CCK-8); format: cell-based; conditions: 8226, without BRCA mutations; CCK-8, 72 h; mean of three
Experimental: as §1

[13] = tested on: MDA-MB-231 cells; test: In vitro antiproliferative assay (CCK-8); format: cell-based; conditions: Homo sapiens; MDA-MB-231, without BRCA mutations; CCK-8, 72 h; mean of three
Experimental: as §1

[14] = tested on: B16 cells; test: In vitro antiproliferative assay (CCK-8); format: cell-based; conditions: Mus musculus; B16, without BRCA mutations; CCK-8, 72 h; mean of three
Experimental: as §1

[15] = tested on: Capan-1 cells; test: In vitro antiproliferative assay (CCK-8); format: cell-based; conditions: Homo sapiens; Capan-1, BRCA-mutated; CCK-8, 72 h; mean of three
Experimental: as §1

[16] = tested on: SKOV3 cells; test: In vitro antiproliferative assay (CCK-8); format: cell-based; conditions: Homo sapiens, SK-OV-3; SKOV3, without BRCA mutations; CCK-8, 72 h; mean of three
Experimental: as §1

[17] = tested on: MCF-7 cells; test: In vitro antiproliferative assay (CCK-8); format: cell-based; conditions: Homo sapiens, MCF7; MCF-7, without BRCA mutations; CCK-8, 72 h; mean of three
Experimental: as §1

Sequence of PARP1 (P09874 whole entry): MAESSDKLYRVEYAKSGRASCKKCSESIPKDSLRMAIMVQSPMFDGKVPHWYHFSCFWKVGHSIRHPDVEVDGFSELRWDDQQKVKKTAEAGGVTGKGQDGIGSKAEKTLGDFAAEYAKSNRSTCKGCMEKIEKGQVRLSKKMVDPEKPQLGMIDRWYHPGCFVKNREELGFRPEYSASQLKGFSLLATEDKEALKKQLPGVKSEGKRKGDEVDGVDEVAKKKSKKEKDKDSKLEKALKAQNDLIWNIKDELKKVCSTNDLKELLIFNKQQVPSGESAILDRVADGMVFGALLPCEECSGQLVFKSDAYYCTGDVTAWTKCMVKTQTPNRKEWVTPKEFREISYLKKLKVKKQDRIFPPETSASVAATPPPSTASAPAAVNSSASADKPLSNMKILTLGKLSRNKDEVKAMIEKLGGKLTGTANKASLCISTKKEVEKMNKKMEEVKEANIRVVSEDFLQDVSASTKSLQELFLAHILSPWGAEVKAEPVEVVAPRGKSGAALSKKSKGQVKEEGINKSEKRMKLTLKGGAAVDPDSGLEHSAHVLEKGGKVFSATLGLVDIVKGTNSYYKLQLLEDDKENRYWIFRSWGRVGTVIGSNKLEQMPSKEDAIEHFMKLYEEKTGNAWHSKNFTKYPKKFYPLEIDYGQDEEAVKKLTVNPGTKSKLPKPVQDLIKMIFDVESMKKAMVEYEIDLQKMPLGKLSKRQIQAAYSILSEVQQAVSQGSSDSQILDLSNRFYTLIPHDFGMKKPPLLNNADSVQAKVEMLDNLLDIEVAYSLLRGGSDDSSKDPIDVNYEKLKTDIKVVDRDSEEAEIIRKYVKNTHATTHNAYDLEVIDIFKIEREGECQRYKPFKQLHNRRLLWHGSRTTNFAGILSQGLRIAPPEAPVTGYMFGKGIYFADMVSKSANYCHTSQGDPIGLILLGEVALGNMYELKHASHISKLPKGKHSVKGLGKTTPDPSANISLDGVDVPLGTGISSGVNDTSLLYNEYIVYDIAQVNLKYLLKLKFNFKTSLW

SMILES: O=C(c1ccc(F)cc1)N1CCN(Cc2cc(Cc3n[nH]c(=O)c4ccccc34)ccc2F)CC1 [A1, 4-(4-Fluoro-3-((4-(4-fluorobenzoyl)piperazin-1-yl)methyl)benzyl)phthalazin-1(2H)-one]
IC50 ([1]; Table 1, A series): 31.2 ± 2.4 nM

SMILES: O=C(c1ccccc1F)N1CCN(Cc2cc(Cc3n[nH]c(=O)c4ccccc34)ccc2F)CC1 [A2, 4-(4-Fluoro-3-((4-(2-fluorobenzoyl)piperazin-1-yl)methyl)benzyl)phthalazin-1(2H)-one]
IC50 ([1]; Table 1, A series): 29.4 ± 2.2 nM

SMILES: O=C(c1cccc(F)c1)N1CCN(Cc2cc(Cc3n[nH]c(=O)c4ccccc34)ccc2F)CC1 [A3, 4-(4-Fluoro-3-((4-(3-fluorobenzoyl)piperazin-1-yl)methyl)benzyl)phthalazin-1(2H)-one]
IC50 ([1]; Table 1, A series): 17.6 ± 1.3 nM

SMILES: O=C(c1ccc(C(F)(F)F)cc1)N1CCN(Cc2cc(Cc3n[nH]c(=O)c4ccccc34)ccc2F)CC1 [A4, 4-(4-Fluoro-3-((4-(4-(trifluoromethyl)benzoyl)piperazin-1-yl)methyl)benzyl)phthalazin-1(2H)-one]
IC50 ([1]; Table 1, A series): 42.2 ± 4.1 nM

SMILES: O=C(c1ccccc1C(F)(F)F)N1CCN(Cc2cc(Cc3n[nH]c(=O)c4ccccc34)ccc2F)CC1 [A5, 4-(4-Fluoro-3-((4-(2-(trifluoromethyl)benzoyl)piperazin-1-yl)methyl)benzyl)phthalazin-1(2H)-one]
IC50 ([1]; Table 1, A series): 33.2 ± 3.1 nM

SMILES: O=C(c1cccc(C(F)(F)F)c1)N1CCN(Cc2cc(Cc3n[nH]c(=O)c4ccccc34)ccc2F)CC1 [A6, 4-(4-Fluoro-3-((4-(3-(trifluoromethyl)benzoyl)piperazin-1-yl)methyl)benzyl)phthalazin-1(2H)-one]
IC50 ([1]; Table 1, A series): > 50 nM

SMILES: O=C(c1ccccc1Cl)N1CCN(Cc2cc(Cc3n[nH]c(=O)c4ccccc34)ccc2F)CC1 [A7, 4-(3-((4-(2-Chlorobenzoyl)piperazin-1-yl)methyl)-4-fluorobenzyl)phthalazin-1(2H)-one]
IC50 ([1]; Table 1, A series): 24.6 ± 2.1 nM

SMILES: O=C(c1cccc(Br)c1)N1CCN(Cc2cc(Cc3n[nH]c(=O)c4ccccc34)ccc2F)CC1 [A8, 4-(3-((4-(3-Bromobenzoyl)piperazin-1-yl)methyl)-4-fluorobenzyl)phthalazin-1(2H)-one]
IC50 ([1]; Table 1, A series): 22.5 ± 2.1 nM

SMILES: Cc1ccccc1C(=O)N1CCN(Cc2cc(Cc3n[nH]c(=O)c4ccccc34)ccc2F)CC1 [A9, 4-(4-Fluoro-3-((4-(2-methylbenzoyl)piperazin-1-yl)methyl)benzyl)phthalazin-1(2H)-one]
IC50 ([1]; Table 1, A series): 12.6 ± 1.1 nM

SMILES: CCc1ccc(C(=O)N2CCN(Cc3cc(Cc4n[nH]c(=O)c5ccccc45)ccc3F)CC2)cc1 [A10, 4-(3-((4-(4-Ethylbenzoyl)piperazin-1-yl)methyl)-4-fluorobenzyl)phthalazin-1(2H)-one]
IC50 ([1]; Table 1, A series): 21.4 ± 1.4 nM

SMILES: COc1ccccc1C(=O)N1CCN(Cc2cc(Cc3n[nH]c(=O)c4ccccc34)ccc2F)CC1 [A11, 4-(4-Fluoro-3-((4-(2-methoxybenzoyl)piperazin-1-yl)methyl)benzyl)phthalazin-1(2H)-one]
IC50 ([1]; Table 1, A series): 29.4 ± 2.3 nM

SMILES: O=C(c1ccccc1)N1CCN(Cc2cc(Cc3n[nH]c(=O)c4ccccc34)ccc2F)CC1 [A12, 4-(3-((4-Benzoylpiperazin-1-yl)methyl)-4-fluorobenzyl)phthalazin-1(2H)-one]
IC50 ([1]; Table 1, A series): > 50 nM

SMILES: COc1ccc(C(=O)N2CCN(Cc3cc(Cc4n[nH]c(=O)c5ccccc45)ccc3F)CC2)cc1 [A13, 4-(4-Fluoro-3-((4-(4-methoxybenzoyl)piperazin-1-yl)methyl)benzyl)phthalazin-1(2H)-one]
IC50 ([1]; Table 1, A series): > 50 nM

SMILES: NC(=O)C1CCN(Cc2cc(Cc3n[nH]c(=O)c4ccccc34)ccc2F)CC1 [A14, 1-(2-Fluoro-5-((4-oxo-3,4-dihydrophthalazin-1-yl)methyl)benzyl)piperidine-4-carboxamide]
IC50 ([1]; Table 1, A series): > 50 nM

SMILES: O=c1[nH]nc(Cc2ccc(F)c(CN3CCN(Cc4ccc5c(c4)OCO5)CC3)c2)c2ccccc12 [A15, 4-(3-((4-(Benzo[d][1,3]dioxol-5-ylmethyl)piperazin-1-yl)methyl)-4-fluorobenzyl)phthalazin-1(2H)-one]
IC50 ([1]; Table 1, A series): > 50 nM

SMILES: O=c1[nH]nc(Cc2ccc(F)c(CN3CCC(N4CCCCC4)CC3)c2)c2ccccc12 [A16, 4-(3-([1,4′-Bipiperidin]-1′-ylmethyl)-4-fluorobenzyl)phthalazin-1(2H)-one]
IC50 ([1]; Table 1, A series): > 50 nM

SMILES: COC(=O)C1CCN(Cc2cc(Cc3n[nH]c(=O)c4ccccc34)ccc2F)CC1 [A17, Methyl1-(2-fluoro-5-((4-oxo-3,4-dihydrophthalazin-1-yl)methyl)benzyl)piperidine-4-carboxylate]
IC50 ([1]; Table 1, A series): > 50 nM

SMILES: O=C(c1ccc(N(CCCl)CCCl)cc1)N1CCN(C(=O)c2cc(Cc3n[nH]c(=O)c4ccccc34)ccc2F)CC1 [C1, 4-(3-(4-(4-(Bis(2-chloroethyl)amino)benzoyl)piperazine-1-carbonyl)-4-fluorobenzyl) phthalazin-1(2H)-one]
IC50 [2]: > 100000 nM
IC50 [3]: > 100000 nM
IC50 [4]: 360 ± 20 nM
IC50 [5]: > 100000 nM
IC50 [6]: 14100 ± 1100 nM
IC50 [7]: 18 ± 2 nM
IC50 [8]: > 100000 nM
IC50 [9]: > 100000 nM
IC50 [10]: > 20000 nM
IC50 [11]: > 100000 nM
IC50 [12]: > 100000 nM
IC50 [13]: > 100000 nM
IC50 [14]: > 100000 nM
IC50 [15]: 105 ± 10 nM
IC50 [16]: > 100000 nM
IC50 [17]: > 100000 nM
IC50 ([1]; Table 2, B and C series): 1.2 ± 0.11 nM

Second part, led by results:

IC50 ([1]; Table 1, A series): > 50 nM
SMILES: O=c1[nH]nc(Cc2ccc(F)c(CN3CCC(Cc4ccccc4)CC3)c2)c2ccccc12 [A18, 4-(3-((4-Benzylpiperidin-1-yl)methyl)-4-fluorobenzyl)phthalazin-1(2H)-one]

IC50 ([1]; Table 1, A series): 12.6 ± 0.9 nM
SMILES: O=C(c1ccc2c(c1)OCO2)N1CCN(Cc2cc(Cc3n[nH]c(=O)c4ccccc34)ccc2F)CC1 [A20, 4-(3-((4-(Benzo[d][1,3]dioxole-5-carbonyl)piperazin-1-yl)methyl)-4-fluorobenzyl)phthalazin-1(2H)-one]

IC50 ([1]; Table 1, A series): 8.4 ± 0.4 nM
SMILES: O=C(C1CC1)N1CCN(Cc2cc(Cc3n[nH]c(=O)c4ccccc34)ccc2F)CC1 [A21, 4-(3-((4-(Cyclopropanecarbonyl)piperazin-1-yl)methyl)-4-fluorobenzyl)phthalazin-1(2H)-one]

IC50 ([1]; Table 1, A series): 9.3 ± 0.3 nM
SMILES: O=C(C1CCC(F)(F)CC1)N1CCN(Cc2cc(Cc3n[nH]c(=O)c4ccccc34)ccc2F)CC1 [A22, 4-(3-((4-(4,4-Difluorocyclohexane-1-carbonyl)piperazin-1-yl)methyl)-4-fluorobenzyl) phthalazin-1(2H)-one]

IC50 ([1]; Table 1, A series): 10.1 ± 0.6 nM
SMILES: O=C(C1CCCCC1)N1CCN(Cc2cc(Cc3n[nH]c(=O)c4ccccc34)ccc2F)CC1 [A23, 4-(3-((4-(Cyclohexanecarbonyl)piperazin-1-yl)methyl)-4-fluorobenzyl)phthalazin-1(2H)-one]

IC50 [2]: > 100000 nM
IC50 [3]: > 100000 nM
IC50 [4]: > 1000 nM
IC50 [5]: > 100000 nM
IC50 [6]: > 100000 nM
IC50 [7]: > 1000 nM
IC50 [8]: > 100000 nM
IC50 [9]: > 100000 nM
IC50 [10]: > 20000 nM
IC50 [13]: > 100000 nM
IC50 [14]: > 100000 nM
IC50 [16]: > 100000 nM
IC50 [17]: > 100000 nM
IC50 ([1]; Table 2, B and C series): 2.8 ± 0.1 nM
SMILES: CCCCNNC(=O)c1cc(Cc2n[nH]c(=O)c3ccccc23)ccc1F [B3, N′-butyl-2-fluoro-5-((4-oxo-3,4-dihydrophthalazin-1-yl)methyl)benzohydrazide]
IC50 [11]: > 100000 nM
IC50 [12]: > 100000 nM
IC50 [15]: > 1000 nM

IC50 ([1]; Table 2, B and C series): 11.8 ± 1.3 nM
SMILES: CC(C)CNNC(=O)c1cc(Cc2n[nH]c(=O)c3ccccc23)ccc1F [B4, 2-Fluoro-N′-isobutyl-5-((4-oxo-3,4-dihydrophthalazin-1-yl)methyl)benzohydrazide]

IC50 ([1]; Table 2, B and C series): 5.2 ± 0.4 nM
SMILES: CCCCCNNC(=O)c1cc(Cc2n[nH]c(=O)c3ccccc23)ccc1F [B5, 2-Fluoro-5-((4-oxo-3,4-dihydrophthalazin-1-yl)methyl)-N′-pentylbenzohydrazide]

IC50 ([1]; Table 2, B and C series): 9.4 ± 0.8 nM
SMILES: CCCCCCNNC(=O)c1cc(Cc2n[nH]c(=O)c3ccccc23)ccc1F [B6, 2-Fluoro-N′-hexyl-5-((4-oxo-3,4-dihydrophthalazin-1-yl)methyl)benzohydrazide]
